Assay results taken from article PMC9718554, “Discovery of a fragment hit compound targeting D-Ala:D-Ala ligase of bacterial peptidoglycan biosynthesis” (Journal of Enzyme Inhibition and Medicinal Chemistry, 2022).
Where two headings read alike, the source gives them in different places.

Experiments:
[1] = biological target: T1, E. coli DdlB enzyme (D-alanine:D-alanine ligase) (Escherichia coli, UniProt P07862); assay: biochemical; details: read-out: DdlB RA; for remaining activity at 2100 µM: tested concentration 2.1 mM; for remaining activity at 1900 µM: tested concentration 1.9 mM; for remaining activity at 2000 µM: tested concentration 2.0 mM; for remaining activity at 1700 µM: tested concentration 1.7 mM; for remaining activity at 2200 µM: tested concentration 2.2 mM; for remaining activity at 1800 µM: tested concentration 1.8 mM; for remaining activity at 2400 µM: tested concentration 2.4 mM
T1 construct: made in house; host or cells: E. coli

[2] = Solubility at tested concentrations (fragment library screening); format: physicochemical
From the text: Supplement IENZ_A_2149745_SM2502.zip/DDlB_CDR05_SI_20221103.xlsx, sheet "Fragment library screening" | column: Solubility at tested concentrations

[3] = residual activity of DdlB, fragment library screening, tested concentration 2.5 mM

| SMILES | remaining activity at 2500 µM [1, 3] [%] | other results |
| --- | --- | --- |
| Oc1cccc2ccc(Nc3ccccn3)nc12 [Compound 0422-0008] | – | remaining activity at 2100 µM ([1]; residual activity): 31%; Solubility at tested concentrations ([2]; tested concentration 2.1 mM): not soluble |
| Oc1ccccc1/N=C/c1ccc2cccc(O)c2n1 [Compound 0422-0036] | – | remaining activity at 1900 µM ([1]; residual activity): 79%; Solubility at tested concentrations ([2]; tested concentration 1.9 mM): not soluble |
| Oc1c(Cl)cc(Cl)c2ccc(Cl)nc12 [Compound 0422-0102] | – | remaining activity at 2000 µM ([1]; residual activity): 99%; Solubility at tested concentrations ([2]; tested concentration 2.0 mM): not soluble |
| CCc1cccc2c(=O)c(C(=O)O)c[nH]c12 [Compound 2595-1123] | – | remaining activity at 2300 µM ([1]; residual activity, tested concentration 2.3 mM): 47%; Solubility at tested concentrations ([2]; tested concentration 2.3 mM): not soluble |
| Oc1nc(-c2ccc(Cl)cc2)c2ccccc2n1 [Compound 3740-0004] | – | remaining activity at 1900 µM ([1]; residual activity): 83%; Solubility at tested concentrations ([2]; tested concentration 1.9 mM): not soluble |
| Cc1ccc(-c2nc(O)nc3ccccc23)cc1 [Compound 3740-0006] | – | remaining activity at 2100 µM ([1]; residual activity): 83%; Solubility at tested concentrations ([2]; tested concentration 2.1 mM): not soluble |
| O=C(N/N=C/c1ccc2cccc(O)c2n1)c1ccccc1 [Compound 4539-0001] | – | remaining activity at 1700 µM ([1]; residual activity): 49%; Solubility at tested concentrations ([2]; tested concentration 1.7 mM): not soluble |
| Oc1cccc2ccc(/C=C/c3ccc4c(c3)OCO4)nc12 [Compound 4896-3346] | – | remaining activity at 1700 µM ([1]; residual activity): 139%; Solubility at tested concentrations ([2]; tested concentration 1.7 mM): not soluble |
| Oc1cccc(/C=C/c2ccc3cccc(O)c3n2)c1 [Compound 5617-0440] | – | remaining activity at 1900 µM ([1]; residual activity): 55%; Solubility at tested concentrations ([2]; tested concentration 1.9 mM): not soluble |
| O=C(Cc1ccc(Cl)cc1)Nc1nnc[nH]1 [Compound 7881-1517] | – | remaining activity at 2100 µM ([1]; residual activity): 79%; Solubility at tested concentrations ([2]; tested concentration 2.1 mM): not soluble |
| O=C(Cc1ccccc1[N+](=O)[O-])Nc1nnc[nH]1 [Compound 7882-1936] | – | remaining activity at 2000 µM ([1]; residual activity): 118%; Solubility at tested concentrations ([2]; tested concentration 2.0 mM): not soluble |
| Cc1ccc(-c2csc(NC(=O)CO)n2)cc1 [Compound 8005-2972] | – | remaining activity at 2000 µM ([1]; residual activity): 88%; Solubility at tested concentrations ([2]; tested concentration 2.0 mM): not soluble |
| O=C(O)c1ccc(N2Cc3ccccc3C2)cc1O [Compound 8005-9285] | – | remaining activity at 2000 µM ([1]; residual activity): 61%; Solubility at tested concentrations ([2]; tested concentration 2.0 mM): not soluble |
| OCc1ccc(Br)cc1 [FLD122] | 96 | – |
| N#Cc1cncc(Br)c1 [FLD123] | 97 | – |
| N#Cc1ccc(N2CCCNCC2)nc1 [FLD124] | 62 | – |
| Nc1ncccc1O [FLD125] | 97 | – |
| Nc1nnc(C2CC2)s1 [FLD126] | 80 | – |
| O=C1N[C@@H](c2ccccc2)CO1 [FLD127] | 99 | – |
| CSc1nc(N)n[nH]1 [FLD128] | 97 | – |
| CC(=O)Nc1ccccc1C(=O)O [FLD129] | 98 | – |
| Cc1cc(C)[nH]n1 [FLD130] | 100 | – |

| SMILES | remaining activity at 2500 µM [1, 3] [%] | other results |
| --- | --- | --- |
| Nc1cccc(CC(=O)O)c1 [FLD131] | 97 | – |
| Nc1c(Br)cc(Br)cc1C(=O)O [FLD132] | 100 | – |
| Nc1ncccn1 [FLD133] | 102 | – |
| O=C(O)c1cccnc1F [FLD134] | 98 | – |
| COc1c(C)[nH]ccc1=O [FLD135] | 96 | – |
| N#Cc1ccsc1N [FLD136] | 100 | – |
| N#Cc1c(N)cccc1F [FLD137] | 98 | – |
| Nn1cnnc1 [FLD138] | 96 | – |
| CC(=O)c1ccc[nH]1 [FLD139] | 95 | – |
| CNc1nnc(C(F)(F)F)s1 [FLD140] | 94 | – |
| O=C(O)CCc1cccnc1 [FLD141] | 95 | – |
| O=[N+]([O-])c1ccc(Cl)nc1 [FLD142] | 92 | – |
| COC(=O)c1cscc1N [FLD143] | 92 | – |
| Nc1ncnc2[nH]ccc12 [FLD144] | 94 | – |
| Nc1ccc(Br)cn1 [FLD145] | 92 | – |
| O=C(O)Cc1cccs1 [FLD146] | 95 | – |
| Nc1ccc2nsnc2c1 [FLD147] | 100 | – |
| O=C(O)Cc1ccc(F)c(C(F)(F)F)c1 [FLD148] | 100 | – |
| N#Cc1ccc(CCO)cc1 [FLD149] | 100 | – |
| Cc1nnc(N)s1 [FLD150] | 95 | – |
| O=C(O)c1ccncc1F [FLD151] | 98 | – |
| N#Cc1ccc(CN)cc1 [FLD152] | – | remaining activity at 2500 µM [1]: 97% |

| SMILES | remaining activity at 2500 µM [1, 3] [%] | other results |
| --- | --- | --- |
| Cc1cc(N)[nH]n1 [FLD153] | 98 | – |
| Clc1ncnc2[nH]ccc12 [FLD154] | 95 | – |
| O=C1Cc2cc([N+](=O)[O-])ccc2N1 [FLD155] | 99 | – |
| O=C(O)Cc1c(Cl)cccc1Cl [FLD156] | 100 | – |
| NCc1nc2ccccc2[nH]1 [FLD157] | 105 | – |
| Fc1cc(Br)ccc1CN1CCCNCC1 [FLD158] | 63 | – |
| COc1ccc(Br)cc1OC [FLD159] | 98 | – |
| OCCc1ccc(Cl)cc1 [FLD160] | 92 | – |
| CCc1cccc(N)n1 [FLD162] | 100 | – |
| N#Cc1ccc(F)c(F)c1 [FLD163] | 95 | – |
| CCOC(=O)Cc1ccccn1 [FLD164] | 97 | – |
| Cc1ccc(O)c(C)c1 [FLD165] | 91 | – |
| c1ccc2c(c1)CCNC2 [FLD166] | 77 | – |
| Cc1cc(C)nc(C)c1 [FLD167] | 95 | – |
| CC(O)c1ccccc1 (stereo not drawn) [FLD168] | 98 | – |
| Brc1ccccn1 [FLD169] | 100 | – |
| NCCc1ccc(Br)cc1 [FLD170] | 93 | – |
| Cc1nc2ccccc2nc1O [FLD171] | 95 | – |
| Oc1c(F)c(F)c(F)c(F)c1F [FLD172] | 92 | – |
| Oc1cccc(C(F)(F)F)c1 [FLD173] | 91 | – |
| NCc1ccccc1Cl [FLD174] | 100 | – |
| NCCc1cccc(F)c1 [FLD175] | 94 | – |

| SMILES | remaining activity at 2500 µM [1, 3] [%] | other results |
| --- | --- | --- |
| CC(C)c1cccc(O)c1 [FLD176] | 95 | – |
| OCCc1ccccc1C(F)(F)F [FLD177] | 100 | – |
| CCOC(=O)c1cccnc1C [FLD178] | 99 | – |
| CNc1ccccc1N [FLD179] | 84 | – |
| N#Cc1ccccn1 [FLD180] | 98 | – |
| CCOC(=O)C(C#N)c1ccccc1 (stereo not drawn) [FLD181] | 89 | – |
| C#Cc1cccc(OC)c1 [FLD182] | 91 | – |
| N#CCc1ccsc1 [FLD183] | 100 | – |
| Clc1nccs1 [FLD184] | 98 | – |
| COc1ccncc1 [FLD185] | 99 | – |
| CC1=NCCC1 [FLD186] | 71 | – |
| CC1=NCCS1 [FLD187] | 100 | – |
| CC1=NC(C)(C)CO1 [FLD188] | 91 | – |
| CCOC(=O)N1CCC(N)CC1 [FLD189] | 98 | – |
| CC(=O)N1CCC(=O)CC1 [FLD190] | 100 | – |
| CCOC(=O)N1CCNCC1 [FLD191] | 100 | – |
| CCNCc1ccncc1 [FLD193] | 91 | – |
| Cc1ncc(CO)c(CO)c1O [FLD194] | 99 | – |
| Cc1cc(C)n(CO)n1 [FLD195] | 97 | – |
| N#Cc1cccnc1N [FLD196] | 99 | – |
| OCc1ccncc1 [FLD197] | 100 | – |
| Cn1c(C(=O)O)cc2ccccc21 [FLD198] | 79 | – |

| SMILES | remaining activity at 2500 µM [1, 3] [%] | other results |
| --- | --- | --- |
| Nc1cccc(F)n1 [FLD199] | 91 | – |
| OCc1cccs1 [FLD200] | 95 | – |
| Cc1ncc(CO)c(C2CCCN(C(=O)C(C)C)C2)n1 (stereo not drawn) [SA04-1071] | – | remaining activity at 2200 µM ([1]; residual activity): 95% |
| CCS(=O)(=O)N1CC2(CC(N3CCCC3)CO2)C1 (stereo not drawn) [SA46-1771] | – | remaining activity at 1800 µM ([1]; residual activity): 90% |
| C1CNCC(CCc2noc(C3CCOCC3)n2)C1 (stereo not drawn) [SA66-1056] | – | remaining activity at 1800 µM ([1]; residual activity): 94% |
| CC(=O)N1CCC(CCc2noc(C)n2)C1 (stereo not drawn) [SA67-1016] | – | remaining activity at 2700 µM ([1]; tested concentration 2.7 mM): 93% |
| CC(=O)N1CC(=O)N(CCc2ccccc2)CC(O)C1 (stereo not drawn) [SA85-1024] | – | remaining activity at 2200 µM ([1]; residual activity): 95% |
| CC(C)CN1CC(O)CN(C(=O)C2CCC2)CC1=O (stereo not drawn) [SA85-1056] | – | remaining activity at 2200 µM ([1]; residual activity): 97% |
| O=C(NCc1ccccc1)C1(F)CCNC1 (stereo not drawn) [SA94-0001] | – | remaining activity at 1900 µM [1]: 97% |
| Cc1n[nH]c([C@@H]2CC(F)(F)CN2C2CCCCCC2)n1 [SB35-1022] | – | remaining activity at 1900 µM ([1]; residual activity): 97% |
| CC(C)CCN1C[C@@H]2CN(C)C(=O)[C@H](C)N2C1=O [SB41-0167] | – | remaining activity at 2400 µM [1]: 85% |
| CC(=O)N1CC(c2nc(C)no2)C2(CNC2)C1 (stereo not drawn) [SB57-1191] | – | remaining activity at 2200 µM [1]: 69% |
| O=C1C[C@H]2CN(S(=O)(=O)c3ccccc3)C[C@H]2CN1 [SB76-0562] | – | remaining activity at 2100 µM ([1]; residual activity): 86% |
| Cc1nc(CCOC2CCCNC2)no1 (stereo not drawn) [SC04-0106] | – | remaining activity at 2400 µM [1]: 95% |
| O=C1Cn2nnc(CNC(=O)NC3CCCC3)c2CN1 [SC45-0107] | – | remaining activity at 2200 µM ([1]; residual activity): 93% |
| O=C(C1CC1)N1CC(c2n[nH]c(C3CC3)n2)C2(CCC2)C1 (stereo not drawn) [SC70-0192] | – | remaining activity at 1700 µM ([1]; residual activity): 95% |
| COCCn1nc(-c2cocn2)c2c1CCN(C(C)C)C2 [SD01-0107] | – | remaining activity at 1700 µM ([1]; residual activity): 92% |
| Cn1nc(CCC(=O)NC2CCCC2)c2c1CCOC2 [SD48-0064] | – | remaining activity at 2200 µM ([1]; residual activity): 102% |
| Cn1nc(CCC(=O)N2CCNC(=O)C2)c2c1CCOC2 [SD48-0069] | – | remaining activity at 2100 µM ([1]; residual activity): 99% |
